Here are results for five molecules from patent US4900725A, “Steroids including a spiro ring in position 17, the process for their preparation and their use” (Roussel Uclaf, priority 1986, dated 1990).

Assay [1] has as its system thymocytes of suprarenalectomized rats. The experiment in a line: Antiglucocorticoid activity: inhibition of the effect of dexamethasone on tritiated uridine incorporation in thymocytes. The assay is classed as cell-based. Conditions: Rattus norvegicus, Thymocyte, 5.10^-8 M dexamethasone, 37° C., 30 hours; for inhibition at 1 µM: product at 10^-6 M; for inhibition at 0.1 µM: product at 10^-7 M; for inhibition at 0.01 µM: product at 10^-8 M. Here is the method:
II. Antiglucocorticoid activity
The technique used derives from the method described by Dausse et Col. in "Molecular Pharmacology", 13, 948-953, (1977) ("the relationship between glucocorticoid structure and effects upon Thymocytes") for the thymocytes of mice.
The thymocytes of suprarenalectomized rats are incubated at 37° C. for 30 hours in a nutritive medium containing 5.10^-8 M of dexamethasone in the presence or not of a product being studied, at different concentrations. Tritiated uridine is added, and the incubation is continued for one hour. The incubates are cooled, and treated with a 5% solution of trichloroacetic acid, then filtered on Whatman GF/A paper, and washed three times with a 5% trichloroacetic acid solution. The radio-activity retained by the filter is determined.
The products of examples 1 to 4 oppose this effect.

For assay [2], the target named is T1, Progestogene receptor of rabbit uterus (Oryctolagus cuniculus, UniProt P06186).
T1 construct: the uterus is removed, weighed and homogenized at 0° C; from tissue; host or cells: uterus of estradiol-treated impuberal rabbits, 105,000 g supernatant (cytosol)
T1 sequence (P06186 1-930): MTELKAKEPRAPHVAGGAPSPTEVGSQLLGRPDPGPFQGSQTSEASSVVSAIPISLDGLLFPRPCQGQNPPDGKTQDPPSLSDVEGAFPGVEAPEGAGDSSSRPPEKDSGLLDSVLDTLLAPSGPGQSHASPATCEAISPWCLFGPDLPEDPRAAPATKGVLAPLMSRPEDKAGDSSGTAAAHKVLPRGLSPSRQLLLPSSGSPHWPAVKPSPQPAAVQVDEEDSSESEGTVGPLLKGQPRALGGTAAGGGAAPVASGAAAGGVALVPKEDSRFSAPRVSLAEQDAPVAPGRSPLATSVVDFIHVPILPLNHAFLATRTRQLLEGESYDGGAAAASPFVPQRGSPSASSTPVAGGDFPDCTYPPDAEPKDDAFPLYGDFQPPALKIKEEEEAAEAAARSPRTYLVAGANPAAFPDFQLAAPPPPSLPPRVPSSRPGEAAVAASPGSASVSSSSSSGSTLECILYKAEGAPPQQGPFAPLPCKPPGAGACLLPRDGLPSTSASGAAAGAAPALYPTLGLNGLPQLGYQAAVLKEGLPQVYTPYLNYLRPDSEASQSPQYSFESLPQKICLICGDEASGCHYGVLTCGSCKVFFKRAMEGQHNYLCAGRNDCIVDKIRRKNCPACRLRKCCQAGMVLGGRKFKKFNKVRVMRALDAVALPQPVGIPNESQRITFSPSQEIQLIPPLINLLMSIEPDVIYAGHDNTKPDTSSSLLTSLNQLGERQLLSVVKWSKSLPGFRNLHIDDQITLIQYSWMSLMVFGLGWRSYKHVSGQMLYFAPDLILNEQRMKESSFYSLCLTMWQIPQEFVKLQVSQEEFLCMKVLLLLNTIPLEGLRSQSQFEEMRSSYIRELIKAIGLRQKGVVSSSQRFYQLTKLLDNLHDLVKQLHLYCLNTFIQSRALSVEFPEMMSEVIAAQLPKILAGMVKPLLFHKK
The experiment in a line: Progestogene receptor of rabbit uterus, relative bonding affinity (RBA). It counts as binding. As to conditions: for Relative bonding affinity (RBA), Progestogen, 2 H: incubation 2 H at 0° C.; for Relative bonding affinity (RBA), Progestogen, 2 H / Relative bonding affinity (RBA), Progestogen, 24 H: versus cold reference hormone, tritiated R; for Relative bonding affinity (RBA), Progestogen, 24 H: incubation 24 H at 0° C. Here is the method: Progestogene receptor of rabbit uterus
Impuberal rabbits weighing about 1 kg receive a cutaneous application of […] of estradiol. 5 days after this treatment, the animals are killed, the uterus is removed, weighed and homogenized at 0° C., using a Potter teflon-glass, in a buffered solution TS (tirs 10 mM, saccharose 0.25 M, HCl pH 7.4) (1 g of tissue for 50 ml of TS). The homogenate is then ultra-centrifuged (105,000 g×90 min.) at 0° C.
Aliquots of the supernatant so obtained are incubated at 0° C. for a time t, with a constant concentration (T) of tritiated product R (17,21-dimethyl-19-nor-4,9-pregnadiene-3,20-dione) in the presence of increasing concentrations (0-2500.10^-9 M either of R cold, or of cold progesterone, or of the cold product under test. The concentration (B) of bonded triated (R) is then measured in each incubate by the technique of adsorption on carbon dextran.
(§1) Calculation of the relative bonding affinity
(§2) The calculation of the relative bonding affinity (RBA) is the same for all the receptors.
(§3) The two following curves are drawn: the percentage of bonded tritiated hormone B/T as a function of the concentration of the cold reference hormone, and B/T as a function of the logarithm of the concentration of the cold product under test. The straight line of the equation [formula] is determined. B/T max=percentage of tritiated hormone bonded for an incubation of this tritiated hormone at the concentration (T). B/T min=percentage of tritiated hormone bonded for an incubation of this tritiated hormone at the concentration (T) in the presence of a great excess of cold hormone (2,500.10^-9 M).
(§4) The intersections of the straight line I50 with the curves enables the concentrations of the cold reference hormone (CH) and of the cold product under test (CX) to be evaluated which inhibit by 50% the bonding of the tritiated hormone on the receptor.
(§5) The relative bonding affinity (RBA) of the product under test is determined by the equation: [formula]

The target in assay [3] is T2, Glucocorticoid receptor of the rat thymus (Rattus norvegicus, UniProt P06536).
T2 construct: the thymus is removed and homogenized at 0° C. in a buffer; from tissue; host or cells: thymus of adrenalectomized male Sprague-Dawley rats, 105,000 g supernatant (cytosol)
T2 sequence (P06536 1-795): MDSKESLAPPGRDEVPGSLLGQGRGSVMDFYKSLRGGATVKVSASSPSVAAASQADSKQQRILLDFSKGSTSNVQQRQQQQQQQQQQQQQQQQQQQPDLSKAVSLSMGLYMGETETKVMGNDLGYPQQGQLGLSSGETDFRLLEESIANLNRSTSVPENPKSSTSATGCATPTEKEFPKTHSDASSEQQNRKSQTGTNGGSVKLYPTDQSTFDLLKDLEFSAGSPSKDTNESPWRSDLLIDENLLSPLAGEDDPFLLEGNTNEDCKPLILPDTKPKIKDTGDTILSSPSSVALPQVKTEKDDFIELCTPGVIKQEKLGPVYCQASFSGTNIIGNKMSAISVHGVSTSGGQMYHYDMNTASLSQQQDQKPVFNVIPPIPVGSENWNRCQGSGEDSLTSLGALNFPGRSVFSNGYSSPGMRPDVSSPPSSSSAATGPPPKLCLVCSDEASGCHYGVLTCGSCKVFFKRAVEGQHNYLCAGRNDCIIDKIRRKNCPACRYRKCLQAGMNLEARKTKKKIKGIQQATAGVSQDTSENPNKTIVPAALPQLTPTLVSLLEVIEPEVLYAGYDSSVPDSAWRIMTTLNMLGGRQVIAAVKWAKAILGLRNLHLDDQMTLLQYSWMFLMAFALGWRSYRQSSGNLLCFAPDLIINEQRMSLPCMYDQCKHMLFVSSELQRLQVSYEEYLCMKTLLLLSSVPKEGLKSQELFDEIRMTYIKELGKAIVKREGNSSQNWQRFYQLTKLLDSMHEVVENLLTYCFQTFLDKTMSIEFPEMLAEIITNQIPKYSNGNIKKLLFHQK
The experiment in a line: Glucocorticoid receptor of the rat thymus, relative bonding affinity (RBA). The assay is classed as binding, rat (Sprague-Dawley). Conditions: for Relative bonding affinity (RBA), Glucocorticoid, 4 H: incubation 4 H at 0° C.; for Relative bonding affinity (RBA), Glucocorticoid, 4 H / Relative bonding affinity (RBA), Glucocorticoid, 24 H: versus cold dexamethasone, tritiated dexamethasone; for Relative bonding affinity (RBA), Glucocorticoid, 24 H: incubation 24 H at 0° C. Here is the method:
Glucocorticoid receptor of the rat thymus
Male Sprague-Dawley EOPS rats, weighing 160 to 200 g are suprerenalectomized. 4 to 8 days after this ablation, the animals are killed, and the thymus is removed and homogenized at 0° C. in a buffer, Tris 10 mM, saccharose 0.25M, dithiothreitol 2 mM, HCl pH 7.4, using a Potter polytetrafluoroethylene-glass (1 g of tissue for 10 ml of TS). The homogenate is then ultra-centrifuged (105,000 g×90 min.) at 0° C. Aliquots of the supernatant so obtained are incubated at 0° C. for a time (t) with a constant concentration (T) of tritiated dexamethasone in the presence of increasing concentrations (0-2,500.10^-9 M) either of cold dexamethasone, or of the cold product under test. The concentration of bonded tritiated dexamethasone (B) is then measured in each incubate by the technique of adsorption on carbon dextran.
as §1, §2, §3, §4, §5

For assay [4], the system named is thymocytes of suprarenalectomized rats. Conditions: general statement on glucocorticoids, in particular dexamethasone; cited from earlier work.

Turning to `CN(C)c1ccc(C2CC3(C)C(CCC34C=CCO4)C3CCC4=CC(=O)CCC4=C23)cc1` (stereo not drawn) [Example 2, (17 R) 11-beta-[4-(dimethylamino)phenyl]-spiro (estra-4,9-dien-17,27-(5H)-furan)-3-one], in assay [1], the inhibition at 1 µM amounted to 32%, the inhibition at 0.1 µM was 18% and the inhibition at 0.01 µM was found to be 0%. In addition, in assay [2], the “Relative bonding affinity (RBA), Progestogen, 2 H” value (from here on “Relative bonding affinity … 2 H”) came out at 23 and the “Relative bonding affinity (RBA), Progestogen, 24 H” value stood at 222. Also, in assay [3], the “Relative bonding affinity (RBA), Glucocorticoid, 4 H” value is recorded as 142 and the “Relative bonding affinity (RBA), Glucocorticoid, 24 H” value is reported as 96.

On to `C[C@@H]1C[C@H]2[C@@H]3CCC4=CC(=O)C=C[C@]4(C)[C@@]3(F)[C@@H](O)C[C@]2(C)[C@@]1(O)C(=O)CO` [dexamethasone], for which the “incorporation of tritiated uridine (in words)” value in assay [4] was “reduction in the incorporation of tritiated uridine”.

Consider `CSc1ccc(C2CC3(C)C(CCC34C=CCO4)C3CCC4=CC(=O)CCC4=C23)cc1` [Example 3, (17R) 11-beta-[4-(methylthio)phenyl]-spiro(estra-4,9-dien-17,2'-(5H)-furan)-3-one], for which, in assay [1], the inhibition at 1 µM amounted to 84%, the inhibition at 0.1 µM turned out to be 12% and the inhibition at 0.01 µM was determined as 0%. In assay [2], the “Relative bonding affinity … 2 H” value is 35 and the “Relative bonding affinity (RBA), Progestogen, 24 H” value was 242. Moreover, in assay [3], the “Relative bonding affinity (RBA), Glucocorticoid, 4 H” value came out at 56 and the “Relative bonding affinity (RBA), Glucocorticoid, 24 H” value is listed as 41.

On to `CSc1ccc(C2CC3(C)C(CCC34CCCO4)C3CCC4=CC(=O)CCC4=C23)cc1` [Example 4, (17R) 4',5'-dihydro-11-beta-[4-(methylthio)phenyl]-spiro(estra-4,9-dien-17,2'-(3H)-furan)-3-one], for which, in assay [1], the inhibition at 1 µM was 80%, the inhibition at 0.1 µM was determined as 21% and the inhibition at 0.01 µM stood at 0%. For the same molecule, the “affinity for the progestogen receptor (in words)” value in assay [2] (conclusion from RBA) is given as “very marked affinity”. Moreover, in assay [2], the “Relative bonding affinity … 2 H” value came to 78 and the “Relative bonding affinity (RBA), Progestogen, 24 H” value turned out to be 388. Also, the “affinity for the glucocorticoid receptor (in words)” value in assay [3] (conclusion from RBA) is on record as “very marked affinity”. Moreover, in assay [3], the “Relative bonding affinity (RBA), Glucocorticoid, 4 H” value is reported as 69 and the “Relative bonding affinity (RBA), Glucocorticoid, 24 H” value was found to be 39.

Turning to `CN(C)c1ccc(C2CC3(C)C(CCC34CCCO4)C3CCC4=CC(=O)CCC4=C23)cc1` (stereo not shown) [Example 1], in assay [1], the inhibition at 1 µM is 125%, the inhibition at 0.1 µM worked out at 51% and the inhibition at 0.01 µM was found to be 11%. Also, in assay [2], the “Relative bonding affinity … 2 H” value came to 62 and the “Relative bonding affinity (RBA), Progestogen, 24 H” value came to 307. Besides, in assay [3], the “Relative bonding affinity (RBA), Glucocorticoid, 4 H” value stood at 118 and the “Relative bonding affinity (RBA), Glucocorticoid, 24 H” value is on record as 48.
